# Laboratory results from publication PMC4713719 (European Journal of Clinical Pharmacology, 2015).
# Where two headings read alike, the source gives them in different places.
# Tests used:
# [1] = Panobinostat plasma PK in the B2207 phase 1b trial (LC-MS/MS, non-compartmental); conditions: B2207, PAN + BTZ + Dex vs historical single-agent trials
# Procedure: In the dose escalation part, PK samples were collected on cycle 1, day 8, and cycle 1, day 15 at pre-dose, and various intervals post-dose up to 48 h.
# [2] = Panobinostat plasma PK in the PANORAMA-1 phase 3 trial (Japan subset); format: in vivo, human; conditions: PANORAMA-1 cycle 1 day 8, PAN + BTZ + Dex, N = 12
# Procedure: Each phase was of 24 weeks duration with treatment phase 1 consisting of eight, 3-week cycles and treatment phase 2 consisting of four, 6-week cycles.
# In this study, plasma samples for panobinostat and bortezomib were collected in a subset of Asian patients. Blood samples were taken at scheduled time points (cycle 1, day 1, and cycle 1 day 8 at pre-dose and at 0.5, 1, 2, 3, 4, 8, 24, and 48 h post-dose) for PK analysis.
# [3] = system: patients with relapsed and refractory multiple myeloma; assay: Grade 3 or 4 adverse events and MTD in the B2207 trial; format: in vivo, human
# From the text: The two combination studies, B2207 and PANORAMA-1, reported efficacy data in patients with relapsed and refractory multiple myeloma. In the current analysis, exposure–efficacy relationship was explored using the efficacy data (ORR based on IMWG criteria) from the B2207 trial.
# [4] = 20 mg PAN single agent (tiw qw), multiple oral dose, N = 32, cited from earlier work
# patients = system: patients; design: method as in historical single-agent studies; conditions: 20 mg PAN (tiw qw) single agent, pooled, N = 309, ref historical single-agent studies, cited from earlier work
# [5] = cited from earlier work
# [6] = cited from earlier work; remark: listed apart in the source
# CYP3A = conditions: strong CYP3A inhibitor, cancer patients; cited from earlier work
# CYP2D6 = conditions: sensitive CYP2D6 substrate, cancer patients; cited from earlier work
# [7] = patients with solid tumors; cited from earlier work
# [8] = system: class I, II, and IV histone deacetylases; conditions: cited from earlier work
# [9] = design: method as in unpublished data; conditions: 20 mg panobinostat + 25 mg lenalidomide + 40 mg dexamethasone (day 1 through day 4); ref unpublished data; cited from earlier work
# [10] = system: patients with advanced hematologic malignancies; conditions: panobinostat alone; cited from earlier work
# [11] = system: patients with multiple myeloma; conditions: cited from earlier work
# [12] = read-out: Projected Cmax; 20 mg oral dose used in the B2207 study
# [13] = human, plasma, oral, geometric mean (% CV)
structure (smiles),measurement,setting,value
"Cc1[nH]c2ccccc2c1CCNCc1ccc(/C=C/C(=O)NO)cc1 [panobinostat, Panobinostat]",Lower panobinostat exposure at MTD in combination vs single-agent trials,[1],~50%
same,AUC0-24,[2]; geometric mean (% CV),95.2 (28.4) ng h/mL
same,Cmax,[2]; [13],15.3 ng/mL
same,half-life,[2]; [13],16.7 h
same,AUC(0-t),"[2]; human, plasma, oral, geometric mean (% CV), read-out: AUC0-24",95 ng·h/mL
same,Vd/F,"[2]; human, plasma, oral, geometric mean (% CV), read-out: Vz/F",3550 L
same,Tmax,"[2]; human, plasma, oral, median (range)",2.02 h
same,MTD,"[3]; B2207, tiw, in combination with bortezomib",20 mg
same,AUC0-24,[4]; geometric mean (% CV),139 (71) ng h/mL
same,Cmax,[4]; geometric mean (% CV),21.6 (83) ng/mL
same,T1/2,[4]; geometric mean (% CV),16.9 (33) h
same,Tmax,[4]; median (range),1 (0.5–8) h
same,Grade 3 or 4 anemia,patients,29 (9) %
same,Grade 3 or 4 diarrhea,patients,about 3%
same,Grade 3 or 4 fatigue,patients,13 (4) %
same,Grade 3 or 4 nausea,patients,6 (2) %
same,Grade 3 or 4 neutropenia,patients,42 (14) %
same,Grade 3 or 4 thrombocytopenia,patients,about 21%
same,Grade 3 or 4 vomiting,patients,4 (1) %
same,Grade 3 or 4 diarrhea,patients; listed as PAN,10 (3) %
same,Grade 3 or 4 thrombocytopenia,patients; listed as PAN,66 (21) %
same,Fraction of the radiolabeled dose recovered in the feces,[5],44 to 77%
same,Fraction of the radiolabeled dose recovered in the urine,[5],29 to 51%
same,Number of metabolites formed,[5],over 70
same,"Unchanged panobinostat in the feces, % of the administered dose",[5],< 3.5%
same,Effective half-life (T1/2),"[5]; single agent, based on the rate of accumulation",approximately 16 h
same,Median Tmax,"[5]; single agent, oral administration",about 2 h
same,Accumulation,[5]; single-agent trial,approximately 1.1 fold
same,Dose linearity of pharmacokinetics,[5]; tested dose range between 10 and 30 mg,approximately linear
same,Steady state reached,[5]; thrice-weekly (tiw) dosing schedule,after the third dose
same,Effect of fed or fasting state on oral bioavailability,[6],marginally affected
same,Increase of panobinostat systemic exposure by ketoconazole,CYP3A,80%
same,Increase of dextromethorphan systemic exposure by panobinostat,CYP2D6,60%
same,"Effect of mild, moderate, or severe renal impairment on plasma exposure",[7],did not alter the plasma exposure
same,Activity against histone deacetylases,[8],low nanomolar activity
same,Decrease in PAN exposure compared to historical single-agent data,[9],approximately 60%
same,Grade ≥3 thrombocytopenia,[10],55%
CC(C)C[C@H](NC(=O)[C@H](Cc1ccccc1)NC(=O)c1cnccn1)B(O)O [bortezomib],MTD,"[3]; B2207, twice-weekly (biw), in combination with panobinostat",1.3 mg/m^2
same,Grade ≥3 diarrhea,[11]; 1.3 mg/m^2 IV bortezomib,5%
same,Grade ≥3 diarrhea,[11]; 1.3 mg/m^2 SC bortezomib,2%
C[C@@H]1C[C@H]2[C@@H]3CCC4=CC(=O)C=C[C@]4(C)[C@@]3(F)[C@@H](O)C[C@]2(C)[C@@]1(O)C(=O)CO [dexamethasone],Cmax,[12],~30 nM
